According to article PMC6017224, “Phytoestrogenic Activity of Blackcurrant Anthocyanins Is Partially Mediated through Estrogen Receptor Beta” (Molecules : A Journal of Synthetic Chemistry and Natural …, 2017):

Biological target: T1, human ERβ (Homo sapiens, UniProt Q92731)
T1 construct: purchased Life Technologies
Assay: PolarScreen ERβ competitive binding assay (fluorescence polarization)
Settings: recombinant human ERβ 23 nM, 4.5 nM Fluormone ES2 Green, 2 h; approximate IC50; read-out: IC50 (displacement of Fluormone ES2 Green from ERβ)

T1 sequence (Q92731 whole entry): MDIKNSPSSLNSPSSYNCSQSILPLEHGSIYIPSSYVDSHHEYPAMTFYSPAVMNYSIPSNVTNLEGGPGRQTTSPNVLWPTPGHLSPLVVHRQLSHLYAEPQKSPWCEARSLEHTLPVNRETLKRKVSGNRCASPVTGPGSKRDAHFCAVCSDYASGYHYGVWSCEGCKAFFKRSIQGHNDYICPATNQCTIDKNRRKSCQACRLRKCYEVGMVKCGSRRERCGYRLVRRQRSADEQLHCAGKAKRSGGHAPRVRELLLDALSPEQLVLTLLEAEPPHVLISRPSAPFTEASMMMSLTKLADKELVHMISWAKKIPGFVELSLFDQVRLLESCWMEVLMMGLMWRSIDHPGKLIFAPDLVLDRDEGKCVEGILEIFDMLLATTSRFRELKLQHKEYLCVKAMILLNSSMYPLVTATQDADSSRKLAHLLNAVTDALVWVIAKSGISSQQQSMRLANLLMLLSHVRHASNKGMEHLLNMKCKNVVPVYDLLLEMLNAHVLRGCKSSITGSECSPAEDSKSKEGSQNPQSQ

Compared with `OC[C@H]1O[C@@H](Oc2cc3c(O)cc(O)cc3[o+]c2-c2cc(O)c(O)c(O)c2)[C@H](O)[C@@H](O)[C@@H]1O` [D3G, delphinidin-3-glucoside], `OC[C@H]1O[C@@H](Oc2cc3c(O)cc(O)cc3[o+]c2-c2ccc(O)c(O)c2)[C@H](O)[C@@H](O)[C@@H]1O` [C3G, cyanidin-3-glucoside] is 3.5-fold lower in IC50: 9.7 µM for the first, 2.8 µM for the second.

`C[C@@H]1O[C@@H](OC[C@H]2O[C@@H](Oc3cc4c(O)cc(O)cc4[o+]c3-c3cc(O)c(O)c(O)c3)[C@H](O)[C@@H](O)[C@@H]2O)[C@H](O)[C@H](O)[C@H]1O` [D3R, delphinidin-3-rutinoside] showed an IC50 of 2.3 µM.
